Measured values: patent US20050257280A1, “Nonhuman model animal nonresponsive to endotoxin and lipoprotein or lipopeptide” (priority 2002, published 2005)

Tests used:
Format in all cases: cell-based, mouse
[1] = tested on: splenocytes from wild-type and TIRAP−/− mice; assay: Proliferation of splenocytes in the presence of IL-1, PHA or both ([3H]-thymidine uptake); conditions: 100 U/ml IL-1β, 10 ng/ml PHA, 72 hr + 12 hr
Description: As shown in MyD88-, TRAF6-, and IRAK-4-deficient mice, signaling pathway via IL-1 receptor family utilizes the same signaling pathway as that of TLRs (Adachi et. al., Immunity. 9, 143-150, 1998; Lomaga et al., Gene Dev. 13, 1015-24, 1999; Naito et al., Gene Cells 4, 353-62, 1999; Suzuki et al., Nature 416, 750-56, 2002). To investigate the proliferation of splenocytes from TIRAP^−/− mice induced by IL-1 or Phytohemagglutinin (PHA) being co-stimulatory substance with IL-1, splenocytes from wild-type and TIRAP^−/− mice were cultured for 72 hr and proliferated in the presence of 100 U/ml of IL-1β, and of 10 ng/ml of PHA, and in the co-presence of IL-1β and PHA, then supplemented with 1 μCi of [^3H]-thymidine, further cultured for 12 hr, and measured the uptake of [^3H] with a β scintillation counter. Proliferation of splenocytes was determined by measuring the [^3H] level of [^3H] thymidine ingested into a cell.

ERK1/2, JNK and p38 = assay: Activation of MAP kinases in peritoneal macrophages (Western blot); conditions: LPS 100 ng/ml, MALP-2 3 ng/ml, R848 100 nM, 10 min and 20 min
Experimental: Next, peritoneal macrophages from wild-type and TIRAP^−/− mice were stimulated with 100 ng/ml of LPS, 3 ng/ml of MALP-2, and 100 nM of R848 for 10 min and 20 min, respectively. The cells were then lysed in the lysis buffer containing 1.0% Nonidet P-40, 150 mM NaCl, 20 mM tris-C1 (pH 7.5), 5 mM EDTA and protease inhibitor cocktail (Roche). The cell lysates were dissolved by SDS-PAGE and transferred onto a PVDF membrane (BioRad). The above-mentioned PVDF membrane was blotted with […] specific to ERK1/2, JNK, and p38 (Santa Cruz), and […] specific to phosphorylated ERK 1/2, phosphorylated JNK, and phosphorylated p38 (Cell Signaling) and Western blot analysis was conducted by visualizing with an enhanced chemiluminescence system (NEN Life Science Product) (FIG. 12). […] The result is quite similar to those observed in MyD88^−/− mice (Kawai et al.: Immunity 11: 115-22; 1999).

IRAK-1 = IRAK-1 in vitro kinase assay on lysates of stimulated peritoneal macrophages
Experimental: IRAK-1 is activated in the downstream of MyD88. […] In vitro kinase assay was conducted as described previously (Sato et al. II), and kinase activation of IRAK-1 was measured. The same lysates were blotted with anti-IRAK-1 antibody, and the effect of IRAK-1 was analyzed (FIG. 13).

NF-κB = NF-κB DNA binding in nuclear extracts of peritoneal macrophages (EMSA); conditions: LPS 100 ng/ml, MALP-2 3 ng/ml, R-848 10 nM
[2] = tested on: peritoneal macrophages from wild-type and TIRAP−/− mice; assay: Inflammatory cytokine production of peritoneal macrophages (ELISA of culture supernatant); conditions: LPS 1 ng/ml 24 hr, MALP-2 and PGN at various concentrations
Experimental: Next, LPS-induced inflammatory cytokine production of peritoneal macrophages from wild-type and TIRAP^−/− mice was analyzed. 2 ml of 4% thioglycollate medium (DIFCO) were intraperitoneally injected into TIRAP^−/− and wild-type mice, respectively. Three days later, peritoneal exudate cells were isolated from peritoneal cavity of each mouse. The cells were cultured for 2 hr at 37° C. in RPMI 1640 medium (GIBCO) supplemented with 10% fetal bovine serum (GIBCO), nonadherent cells were removed by washing with Hank's buffered salt solution: HBSS; GIBCO) at ice temperature, and adherent cells were used as peritoneal macrophages. Each obtained peritoneal macrophage was cultured with 1 ng/ml of Re-595 LPS for 24 hr, and concentration of IL-6, TNF-α and IL-12 in the culture supernatant was measured according to a common procedure by ELISA (FIG. 7; means±SD of triplicates, N.D. Not detected).
IL-6, TNF-α and IL-12 in the culture supernatant were measured using mycoplasmal lipopeptide MALP-2 being TLR2 ligand (synthesized and purified as described in Takeuchi-MALP) and Staphylococcus aureus peptidoglycan (PGN) (Fluka) at various concentrations (FIG. 9). […] Next, peritoneal macrophages of wild-type and TIRAP^−/− mice were stimulated with Poly I:C being TLR3 ligand (Amersham) for 4 hr and 8 hr. Total RNA was extracted, and the expression of IFN-β mRNA was analyzed by Northern blot method. […]

IFN-β mRNA = assay: Expression of IFN-β mRNA in peritoneal macrophages (Northern blot); conditions: stimulated 4 hr and 8 hr
Experimental: IL-6, TNF-α and IL-12 in the culture supernatant were measured using mycoplasmal lipopeptide MALP-2 being TLR2 ligand (synthesized and purified as described in Takeuchi-MALP) and Staphylococcus aureus peptidoglycan (PGN) (Fluka) at various concentrations (FIG. 9). […] Next, peritoneal macrophages of wild-type and TIRAP^−/− mice were stimulated with Poly I:C being TLR3 ligand (Amersham) for 4 hr and 8 hr. Total RNA was extracted, and the expression of IFN-β mRNA was analyzed by Northern blot method. At that time, 18S ribosomal RNA was used as control. Expression of IFN-β mRNA was induced in both wild-type and TIRAP^−/− mice (FIG. 10).

[3] = TIRAP−/− peritoneal macrophages
[4] = wild-type peritoneal macrophages

How did the “proliferation of splenocytes (uptake of [3H]-thymidine)” value ([1]; TIRAP−/− splenocytes) turn out when Phytohemagglutinin [PHA] was run?
The value was “enhanced proliferation”.

And the “proliferation of splenocytes (uptake of [3H]-thymidine)” value ([1]; wild-type splenocytes)?
Its value is “enhanced proliferation”.

What does the source list for “IL-1: Interleukin-1 cytokine, used as IL-1β at 100 U/ml”?
proliferation of splenocytes (uptake of [3H]-thymidine) ([1]; TIRAP−/− splenocytes): enhanced proliferation; proliferation of splenocytes (uptake of [3H]-thymidine) ([1]; wild-type splenocytes): enhanced proliferation

`CCOCc1nc2c(N)nc3ccccc3c2n1CC(C)(C)O` [R-848] was tested. Which “phosphorylation/activation of ERK1/2, JNK and p38” value (“phosphorylation/activation” for short) (ERK1/2, JNK and p38; wild-type macrophages) did it give?
Its value is “phosphorylated and activation was induced”.

And the “autophosphorylation (Auto) of IRAK-1” value (IRAK-1; TIRAP−/− macrophages)?
Its value is “autophosphorylation was induced”.

And the “autophosphorylation (Auto) of IRAK-1” value (IRAK-1; wild-type macrophages)?
Its value is “induced autophosphorylation”.

Which “NF-κB DNA binding effect” value (NF-κB; TIRAP−/− macrophages, LPS at 10 min) does the source give for MALP-2 here?
The value was “significantly inhibited”.

And the “NF-κB DNA binding effect” value (NF-κB; wild-type macrophages, LPS and MALP-2 at 10 min)?
Its value is “observed”.

What about the “production of IL-6, TNF-α and IL-12” value [2, 3] of the same molecule?
The value was “severely impaired”.

And the “production of IL-6, TNF-α and IL-12” value [2, 4]?
The value was “dose-dependent production”.

And the “phosphorylation/activation” value (ERK1/2, JNK and p38; TIRAP−/− macrophages)?
The value was “not observed”.

What about the “phosphorylation/activation” value (ERK1/2, JNK and p38; wild-type macrophages) of the same molecule?
Its value is “phosphorylated and activation was induced”.

What about the “autophosphorylation (Auto) of IRAK-1” value (IRAK-1; TIRAP−/− macrophages) of the same molecule?
Its value is “not observed”.

What about the “autophosphorylation (Auto) of IRAK-1” value (IRAK-1; wild-type macrophages) of the same molecule?
The value was “induced autophosphorylation”.

Which “expression of IFN-β mRNA” value (IFN-β mRNA; [3]) does the source give for Poly I:C here?
Its value is “induced”.

What about the “expression of IFN-β mRNA” value (IFN-β mRNA; [4]) of the same molecule?
The value was “induced”.
